According to ChEMBL document CHEMBL1649078, “Novel antiviral C5-substituted pyrimidine acyclic nucleoside phosphonates selected as human thymidylate kinase substrates” (J Med Chem, 2011):
pEC50: −log10 of the molar value.

The molecules below were run on Vaccinia virus (assay: Antiviral activity against Vaccinia virus infected in human HEL cells assessed as reduction of virus-induced cytopathogenicity after 7 days). Conditions: Orthopoxvirus vaccinia, 168 h.
Type: functional, organism-based

Compound	pEC50
CC(C)(C)C(=O)OCOP(=O)(C/C=C/Cn1cc(Br)c(=O)[nH]c1=O)OCOC(=O)C(C)(C)C	4.48
Nc1nc2c(ncn2COC(CO)CO)c(=O)[nH]1 [GANCICLOVIR]	< 4.00
Nc1ccn(C[C@@H](CO)OCP(=O)(O)O)c(=O)n1 [CIDOFOVIR]	5.22
CC(C)(C)C(=O)OCOP(=O)(C/C=C\Cn1cc(Br)c(=O)[nH]c1=O)OCOC(=O)C(C)(C)C	4.05
O=c1[nH]c(=O)n([C@H]2C[C@H](O)[C@@H](CO)O2)cc1/C=C/Br [BRIVUDINE]	5.82
Cc1cn(C/C=C/CP(=O)(OCOC(=O)C(C)(C)C)OCOC(=O)C(C)(C)C)c(=O)[nH]c1=O	4.52
Cc1cn(C/C=C\CP(=O)(OCOC(=O)C(C)(C)C)OCOC(=O)C(C)(C)C)c(=O)[nH]c1=O	< 4.40
